Assay results published in BindingDB's records for doi:10.3109/10799899109064686 (Center For Bio-Pharmaceutical Sciences, 1991).

Columns and labels:
[1] = biological target: Sodium-dependent serotonin transporter (Rattus norvegicus, UniProt P31652)
[2] = biological target: T1, Muscarinic acetylcholine receptor M2 (Rattus norvegicus, UniProt P10980)
T1 sequence (P10980 whole entry): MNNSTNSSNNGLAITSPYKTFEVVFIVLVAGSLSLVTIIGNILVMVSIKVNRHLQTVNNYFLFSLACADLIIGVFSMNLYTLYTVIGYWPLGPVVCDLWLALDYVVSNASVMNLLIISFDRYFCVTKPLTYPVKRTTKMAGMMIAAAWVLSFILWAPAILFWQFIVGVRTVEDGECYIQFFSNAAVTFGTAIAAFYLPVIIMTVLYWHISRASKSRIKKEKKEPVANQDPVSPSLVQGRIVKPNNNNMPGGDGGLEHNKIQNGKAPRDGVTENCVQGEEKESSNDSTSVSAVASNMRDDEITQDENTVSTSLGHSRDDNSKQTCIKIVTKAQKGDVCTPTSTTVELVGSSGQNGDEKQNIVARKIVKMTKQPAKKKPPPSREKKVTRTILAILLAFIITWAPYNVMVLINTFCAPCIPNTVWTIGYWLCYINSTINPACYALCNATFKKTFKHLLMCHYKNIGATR

[3] = biological target: Histamine H1 receptor (Rattus norvegicus, UniProt P31390)
Histamine H1 receptor, sequence (P31390 whole entry): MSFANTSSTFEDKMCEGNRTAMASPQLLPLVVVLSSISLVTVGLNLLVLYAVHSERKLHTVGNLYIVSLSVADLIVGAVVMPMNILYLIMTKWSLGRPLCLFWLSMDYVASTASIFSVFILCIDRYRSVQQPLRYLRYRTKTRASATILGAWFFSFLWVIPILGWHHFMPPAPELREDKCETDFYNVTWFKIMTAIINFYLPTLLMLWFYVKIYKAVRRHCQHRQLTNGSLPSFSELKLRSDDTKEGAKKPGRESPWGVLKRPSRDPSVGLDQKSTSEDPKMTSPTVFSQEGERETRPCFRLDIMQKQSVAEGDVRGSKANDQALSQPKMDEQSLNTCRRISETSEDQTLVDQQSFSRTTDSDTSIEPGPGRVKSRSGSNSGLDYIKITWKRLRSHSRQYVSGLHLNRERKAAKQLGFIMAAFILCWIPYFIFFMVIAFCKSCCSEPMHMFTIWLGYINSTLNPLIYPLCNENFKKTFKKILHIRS

Sodium-dependent serotonin transporter, sequence (P31652 whole entry): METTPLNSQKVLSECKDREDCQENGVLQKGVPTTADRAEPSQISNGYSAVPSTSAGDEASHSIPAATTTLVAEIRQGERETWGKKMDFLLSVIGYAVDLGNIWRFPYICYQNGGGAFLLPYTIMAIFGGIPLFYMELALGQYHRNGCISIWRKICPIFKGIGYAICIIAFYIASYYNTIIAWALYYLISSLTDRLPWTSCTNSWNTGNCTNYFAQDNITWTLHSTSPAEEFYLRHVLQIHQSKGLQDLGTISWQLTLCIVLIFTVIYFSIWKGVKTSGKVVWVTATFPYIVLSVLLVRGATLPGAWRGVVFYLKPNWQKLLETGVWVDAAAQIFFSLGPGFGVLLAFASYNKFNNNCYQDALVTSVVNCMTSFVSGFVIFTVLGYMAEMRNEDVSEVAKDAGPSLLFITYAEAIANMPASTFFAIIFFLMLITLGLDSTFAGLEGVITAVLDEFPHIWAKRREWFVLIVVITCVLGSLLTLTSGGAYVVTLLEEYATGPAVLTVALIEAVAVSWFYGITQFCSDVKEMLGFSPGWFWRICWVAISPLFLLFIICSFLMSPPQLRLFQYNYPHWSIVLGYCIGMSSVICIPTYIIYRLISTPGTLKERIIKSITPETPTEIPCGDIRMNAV

SMILES	Ki [1] [µM]	Ki [2] [µM]	Ki [3] [µM]
N=C(N)NC(=O)c1nc(Cl)c(N2CCCCCC2)nc1N	7.9	2.9	5.6
N=C(N)NC(=O)c1nc(Cl)c(N)nc1N [3,5-diamino-N-carbamimidoyl-6-chloropyrazine-2-carboxamide]	–	> 10	> 10
NC(=NCc1ccccc1)NC(=O)c1nc(Cl)c(N)nc1N [NSC_108107]	1.9	5.8	3.2
